Source: patent US20230083012A1, “DIHYDROPYRIMIDINE DERIVATIVES AND USES THEREOF IN THE TREATMENT OF HBV INFECTION OR OF HBV-INDUCED DISEASES” (priority 2019, published 2023)
Where two headings read alike, the source gives them in different places.

Key:
HBV = test: Anti-HBV activity in HepG2.2.15 cells (HBV DNA in culture medium by qPCR); format: cell-based; settings: HepG2.2.15 cells, 6 days treatment, HBV DNA in culture medium quantified by real-time PCR, read-out: EC50
Method: Example 2: Anti-Viral Assay in HepG2.2.15 Cells
(§1) HepG2.2.15 (the HepG2.2.15 cell line can be produced by transfection of the HepG2 cell line as described in Sells, Chen, and Acs 1987 (Proc. Natl. Acad. Sci. USA 84: 1005-1009), and the HepG2 cell line is available from ATCC® under number HIB-8065™)
(§2) HepG2.2.15 cells were plated into 96-well plate in 2% FBS culture medium at the density of 40,000 cells/well and 5,000 cells/well for HBV inhibitory activity and cytotoxicity determination, respectively. After incubation at 37° C., 5% CO2 overnight, cells were treated with medium containing compounds for 6 days with medium and compounds refreshed after 3 days of treatment. Each compound was tested in a 1:3 serial dilutions at 8 different concentrations in triplicate. The highest concentration of the compounds was 10 uM or 1 uM for anti-HBV activity assay and 100 uM for cytotoxicity determination.
The change of HBV DNA level induced by the compounds was assessed by quantitative real-time polymerase chain reaction (qPCR). Briefly, the HBV DNA in the culture medium was extracted using QIAamp 96 DNA Blood Kit according to the manual and then quantified by real-time PCR assay using the primers and probe in the table 2 below.
(§3) 2) DATA Analysis EC50 and CC50 values are calculated by the GRAPTIPAD PRISM software.

[1] = Cytotoxicity determination in HepG2.2.15 cells (CCK-8 cell viability); format: cell-based; settings: human, 6 days treatment, CCK-8 assay, highest concentration 100 uM
Method: as §1, §2
Cell viability was determined by CCK-8 assay. After 6 days of compounds treatment, 20 μl CCK-8 reagents were added to each well of cytotoxicity assay plates. Cell plates were incubated at 37° C., 5% CO2 for 2.5 h. The absorbance at 450 nm wavelength and the absorbance at 630 nm wavelength as reference was measured.
as §3

[2] = Hepatitis B virus, HepG2.2.15, 144 h

SMILES | EC50 (HBV; [2]) | CC50 at 6 days [1] | EC50 (HBV)
CCOC(=O)C1=C(CN2CC(F)(F)C3C(=O)N(CC(C)(C)C(=O)O)C[C@@H]32)NC(c2nccs2)=N[C@@H]1c1ccc(Cl)c(F)c1 (single isomer, unassigned) [Compound 211, 3-((cis)-1-((6-(4-chloro-3-fluorophenyl)-5-(ethoxycarbonyl)-2-(thiazol-2-yl)-3,6-dihydropyrimidin-4-yl)methyl)-3,3-difluoro-4-oxohexahydropyrrolo[3,4-b]pyrrol-5(1H)-yl)-2,2-dimethylpropanoic acid] | 36 nM | > 50 µM | 
[H][C@]1(C(=O)O)C[C@@]2(C1)C[C@@]([H])(N1CC[C@H]3[C@@H]1C(F)(F)CN3CC1=C(C(=O)OCC)[C@H](c3cccc(F)c3C)N=C(c3nccs3)N1)C2 (single isomer, unassigned) [Compound 113B] | < 1 nM | > 3.1 µM | 
CCOC(=O)C1=C(CN2CC(F)(F)[C@@H]3CN(CC4(C(=O)O)CC4)C[C@@H]32)NC(c2nccs2)=N[C@H]1c1cccc(F)c1C (single isomer, unassigned) [Compound 16B] | 68.6 nM | > 100 µM | 
COC(=O)C1=C(CN2CC(F)(F)[C@@H]3C(=O)N(CC(C)(C)C(=O)O)C[C@@H]32)NC(c2ncoc2C)=N[C@H]1c1ccc(F)cc1Cl (single isomer, unassigned) [Compound 41, 3-((cis)-1-((6-(2-chloro-4-fluorophenyl)-5-(methoxycarbonyl)-2-(5-methyloxazol-4-yl)-3,6-dihydropyrimidin-4-yl)methyl)-3,3-difluoro-4-oxohexahydropyrrolo[3,4-b]pyrrol-5(1H)-yl)-2,2-dimethylpropanoic acid] | 93.8 nM | > 100 µM | 
CCOC(=O)C1=C(CN2CC(F)(F)[C@@H]3CN(C(=O)CC(C)(C)C(=O)O)C[C@@H]32)NC(c2nccs2)=N[C@H]1c1cccc(F)c1C (single isomer, unassigned) [Compound 23B] | 24 nM | 30.2 µM | 
CCOC(=O)C1=C(CN2CC(F)(F)[C@@H]3[C@H]2CON3CCC(C)(C)C(=O)O)NC(c2nccs2)=N[C@H]1c1cccc(F)c1C (relative stereo) [Compound 69A, 4-(4-(((S)-5-(ethoxycarbonyl)-6-(3-fluoro-2-methylphenyl)-2-(thiazol-2-yl)-3,6-dihydropyrimidin-4-yl)methyl)-6,6-difluorohexahydro-1H-pyrrolo[3,2-c]isoxazol-1-yl)-2,2-dimethylbutanoic acid] | 0.7 nM | 37 µM | 
CCOC(=O)C1=C(CN2CC(F)(F)[C@@H]3CN(C(=O)OC(C)(C)C(=O)O)C[C@@H]32)NC(c2nccs2)=N[C@H]1c1cccc(F)c1C (single isomer, unassigned) [Compound 60] | 49.6 nM | 29.4 µM | 
CCOC(=O)C1=C(CN2CC(F)(F)[C@@H]3[C@H]2CON3CC(C)(C)C(=O)O)NC(c2nccs2)=N[C@@H]1c1ccc(F)nc1C (single isomer, unassigned) [Compound 172, 3-((cis)-4-((5-(Ethoxycarbonyl)-6-(6-fluoro-2-methylpyridin-3-yl)-2-(thiazol-2-yl)-3,6-dihydropyrimidin-4-yl)methyl)-6,6-difluorohexahydro-1H-pyrrolo[3,2-c]isoxazol-1-yl)-2,2-dimethylpropanoic acid] | 33 nM | > 100 µM | 
COC(=O)C1=C(CN2CC(F)(F)[C@@H]3[C@H]2CN(C(C)=O)N3CCC(C)(C)C(=O)O)NC(c2nccs2)=N[C@H]1c1cccc(F)c1Cl (single isomer, unassigned) [Compound 84A] | 52 nM | > 100 µM | 
CCOC(=O)C1=C(CN2CC(F)(F)[C@H]3[C@@H]2CCN3C[C@H](C)C(=O)O)NC(c2nccs2)=N[C@H]1c1ccc(F)cc1Cl (single isomer, unassigned) [Compound 135B, 3-((cis)-4-((6-(2-chloro-4-fluorophenyl)-5-(ethoxycarbonyl)-2-(thiazol-2-yl)-3,6-dihydropyrimidin-4-yl)methyl)-6,6-difluorohexahydropyrrolo[3,2-b]pyrrol-1(2H)-yl)-2-methylpropanoic acid] | 9.9 nM | 36.3 µM | 
CCOC(=O)C1=C(CN2CC(F)(F)[C@H]3[C@@H]2CCN3C(=O)[C@H]2CC[C@H](C(=O)O)CC2)NC(c2nccs2)=N[C@H]1c1cccc(F)c1C (single isomer, unassigned) [Compound 30] | 81.3 nM | 28 µM | 
CCOC(=O)C1=C(CN2CC(F)(F)[C@H]3[C@@H]2CCN3[C@H](C)C(=O)O)NC(c2nccs2)=N[C@H]1c1cccc(F)c1C (single isomer, unassigned) [Compound 26E] | 5.2 nM | 28.1 µM | 
CCOC(=O)C1=C(CN2CC(F)(F)[C@@H]3C(=O)N(C4(C(=O)O)CC4)C[C@@H]32)NC(c2nccs2)=N[C@H]1c1cccc(F)c1C (single isomer, unassigned) [Compound 198] | 96 nM | 99.6 µM | 
CCOC(=O)C1=C(CN2CC(F)(F)[C@@H]3CN(C(C)(C)C(=O)O)C[C@@H]32)NC(c2nccs2)=N[C@H]1c1cccc(F)c1C (single isomer, unassigned) [Compound 195] | 40.3 nM | 96.6 µM | 
CCOC(=O)C1=C(CN2CC(F)(F)C3C2CCN3CC(=O)O)NC(c2nccs2)=N[C@H]1c1cccc(F)c1C (stereo in doubt) [Compound 6, 2-((cis)-4-(((S)-5-(ethoxycarbonyl)-6-(3-fluoro-2-methylphenyl)-2-(thiazol-2-yl)-3,6-dihydropyrimidin-4-yl)methyl)-6,6-difluorohexahydropyrrolo-[3,2-b]pyrrol-1(2H)-yl)acetic acid] | 10.4 nM | 37.2 µM | 
COC(=O)C1=C(CN2CC(F)(F)[C@@H]3[C@H]2CN(C)N3CCC(C)(C)C(=O)O)NC(c2nccs2)=N[C@H]1c1ccc(F)c(F)c1Cl (single isomer, unassigned) [Compound 95, 4-((cis)-4-((6-(2-Chloro-3,4-difluorophenyl)-5-(methoxycarbonyl)-2-(thiazol-2-yl)-3,6-dihydropyrimidin-4-yl)methyl)-6,6-difluoro-2-methylhexahydropyrrolo[3,2-c]pyrazol-1(2H)-yl)-2,2-dimethylbutanoic acid] | 24 nM | 8.2 µM | 
CCOC(=O)C1=C(CN2CC(F)(F)[C@H]3[C@@H]2CN(C(C)=O)N3CCC(C)(C)C(=O)O)NC(c2nccs2)=N[C@H]1c1cccc(F)c1C [Compound 70A, 4-((cis)-2-Acetyl-4-(((S)-5-(ethoxycarbonyl)-6-(3-fluoro-2-methylphenyl)-2-(thiazol-2-yl)-3,6-dihydropyrimidin-4-yl)methyl)-6,6-difluorohexahydropyrrolo[3,2-c]pyrazol-1(2H)-yl)-2,2-dimethylbutanoic acid] |  | > 50 µM | 35 nM
CCCOC(=O)C1=C(CN2CC(F)(F)[C@H]3[C@@H]2CCN3CCC(C)(C)C(=O)O)NC(c2nccs2)=N[C@H]1c1cccc(F)c1C (single isomer, unassigned) [Compound 151] | 18.7 nM | 9.3 µM | 
CCOC(=O)C1=C(CN2CC(F)(F)[C@H]3[C@@H]2CCN3CCC2(C(=O)O)CC2)NC(c2nccs2)=N[C@H]1c1cccc(F)c1C (single isomer, unassigned) [Compound 117] | < 0.5 nM | 24.7 µM | 
CCOC(=O)C1=C(CN2CC(F)(F)[C@H]3[C@@H]2CN(C(C)=O)N3CCC(C)(C)C(=O)O)NC(c2nccs2)=N[C@@H]1c1ccc(F)c(F)c1C (single isomer, unassigned) [Compound 80B, 4-((cis)-2-acetyl-4-((6-(3,4-difluoro-2-methylphenyl)-5-(ethoxycarbonyl)-2-(thiazol-2-yl)-3,6-dihydropyrimidin-4-yl)methyl)-6,6-difluorohexahydropyrrolo[3,2-c]pyrazol-1(2H)-yl)-2,2-dimethylbutanoic acid] | 8 nM | 24.1 µM | 
CCOC(=O)C1=C(CN2CC(F)(F)[C@H]3CN([C@H]4C[C@H](C(=O)O)C4)C[C@H]32)NC(c2nccs2)=N[C@H]1c1cccc(F)c1C (single isomer, unassigned) [Compound 18A] | 61.1 nM | 66.3 µM | 
COC(=O)C1=C(CN2CC(F)(F)[C@H]3[C@@H]2CCN3C[C@H](C)C(=O)O)NC(c2nccs2)=N[C@H]1c1ccc(F)c(F)c1Cl (single isomer, unassigned) [Compound 134B, 3-((cis)-4-((6-(2-chloro-3,4-difluorophenyl)-5-(methoxycarbonyl)-2-(thiazol-2-yl)-3,6-dihydropyrimidin-4-yl)methyl)-6,6-difluorohexahydropyrrolo[3,2-b]pyrrol-1(2H)-yl)-2-methylpropanoic acid] | 4.3 nM | 24.2 µM | 
